The target in this assay is PI3Kα (alpha) (Homo sapiens (Human), UniProt P42336). Briefly: p110α (alpha) PI3K Binding Assay (ADP-Glo lipid kinase reaction). The class given is biochemical. The note with it: PI3K alpha 0.2 nM, ATP 40 μM, PIP2:3PS 50 μM, 120 min, room temperature; Ki by Morrison Equation; read-out: PI3Kα-(alpha) ATP (Ki) micromolar. Summed up:
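Enzyme with PIP2:3PS lipid substrate and ATP/MgCl2 in 50 mM HEPES, 50 mM NaCl, 3 mM MgCl2, 0.01% BSA, 1% DMSO, 120 min at room temperature. ADP formed detected by ADP-Glo luminescence. Ki from 10-point dose-response curves via the Morrison equation.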
Sequence of PI3Kα (alpha) (P42336 whole entry): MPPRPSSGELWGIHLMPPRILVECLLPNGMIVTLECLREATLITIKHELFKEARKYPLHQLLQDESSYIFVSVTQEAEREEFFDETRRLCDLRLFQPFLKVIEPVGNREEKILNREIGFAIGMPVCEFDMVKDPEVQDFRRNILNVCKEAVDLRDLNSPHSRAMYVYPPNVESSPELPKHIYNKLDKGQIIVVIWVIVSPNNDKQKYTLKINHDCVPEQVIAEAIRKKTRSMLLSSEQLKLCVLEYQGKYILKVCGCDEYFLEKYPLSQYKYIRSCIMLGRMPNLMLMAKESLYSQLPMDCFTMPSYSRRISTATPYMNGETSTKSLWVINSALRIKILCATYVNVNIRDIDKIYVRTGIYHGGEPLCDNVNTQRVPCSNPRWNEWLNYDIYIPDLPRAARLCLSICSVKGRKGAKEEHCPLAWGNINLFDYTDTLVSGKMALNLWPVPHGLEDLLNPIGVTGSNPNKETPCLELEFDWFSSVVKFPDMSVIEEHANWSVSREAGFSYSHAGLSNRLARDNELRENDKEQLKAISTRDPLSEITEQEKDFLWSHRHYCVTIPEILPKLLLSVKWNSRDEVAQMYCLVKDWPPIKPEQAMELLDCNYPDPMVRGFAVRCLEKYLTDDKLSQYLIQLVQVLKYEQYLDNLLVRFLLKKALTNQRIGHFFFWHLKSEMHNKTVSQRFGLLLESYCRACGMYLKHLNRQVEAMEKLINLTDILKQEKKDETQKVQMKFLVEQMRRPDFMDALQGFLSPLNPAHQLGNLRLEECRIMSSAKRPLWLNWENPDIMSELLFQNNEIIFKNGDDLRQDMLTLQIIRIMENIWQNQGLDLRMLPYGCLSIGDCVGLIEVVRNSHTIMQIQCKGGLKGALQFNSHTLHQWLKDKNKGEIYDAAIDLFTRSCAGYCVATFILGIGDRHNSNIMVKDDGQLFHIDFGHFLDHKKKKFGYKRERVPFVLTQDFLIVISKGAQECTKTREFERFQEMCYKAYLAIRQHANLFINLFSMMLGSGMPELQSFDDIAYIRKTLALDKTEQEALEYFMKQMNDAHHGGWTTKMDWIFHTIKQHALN
Sequence of PI3Kα (alpha) (P27986 whole entry partner): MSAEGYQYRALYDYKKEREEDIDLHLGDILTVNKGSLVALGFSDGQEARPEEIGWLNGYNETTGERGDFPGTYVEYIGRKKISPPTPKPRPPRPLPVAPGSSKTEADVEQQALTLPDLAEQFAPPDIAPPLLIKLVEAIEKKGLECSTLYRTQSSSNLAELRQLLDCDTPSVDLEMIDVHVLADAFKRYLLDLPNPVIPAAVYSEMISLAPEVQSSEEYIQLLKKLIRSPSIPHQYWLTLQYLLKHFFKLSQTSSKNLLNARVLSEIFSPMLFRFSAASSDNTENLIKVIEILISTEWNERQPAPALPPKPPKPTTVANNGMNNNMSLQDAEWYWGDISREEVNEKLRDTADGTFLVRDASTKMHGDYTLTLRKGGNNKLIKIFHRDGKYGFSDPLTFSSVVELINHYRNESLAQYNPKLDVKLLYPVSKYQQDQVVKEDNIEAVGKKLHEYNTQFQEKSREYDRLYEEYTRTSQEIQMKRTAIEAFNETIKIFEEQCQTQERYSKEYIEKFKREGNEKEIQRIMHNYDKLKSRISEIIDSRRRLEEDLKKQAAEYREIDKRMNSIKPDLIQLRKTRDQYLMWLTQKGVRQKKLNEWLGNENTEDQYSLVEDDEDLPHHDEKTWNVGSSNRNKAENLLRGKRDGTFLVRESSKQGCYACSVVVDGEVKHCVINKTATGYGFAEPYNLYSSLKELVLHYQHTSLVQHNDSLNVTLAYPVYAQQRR
Regarding `NC(=O)[C@@H](Nc1cc2c3c(c1)nc(-c1cc(Cl)c4oc(N)nc4c1)n3CCCO2)C1CC1` [Example 209, (S)-2-((1-(2-Amino-7-chlorobenzo[d]oxazol-5-yl)-8,9-dihydro-7H-6-oxa-2,9a-diazabenzo[cd]azulen-4-yl)amino)-2-cyclopropylacetamide], the Ki came to 0.095 nM.
In the case of `NC(=O)[C@@H](Nc1cc2c3c(c1)nc(-c1cnn(C4COC4)c1)n3CCCO2)C1CC1` [Example 210, (S)-2-Cyclopropyl-2-((1-(1-(oxetan-3-yl)-1H-pyrazol-4-yl)-8,9-dihydro-7H-6-oxa-2,9a-diazabenzo[cd]azulen-4-yl)amino)acetamide], the Ki came to 285 nM.
`NC(=O)[C@@H](Nc1cc2c3c(c1)nc(-c1cnn(CCO)c1)n3CCCO2)C1CC1` [Example 211, (S)-2-Cyclopropyl-2-((1-(1-(2-hydroxyethyl)-1H-pyrazol-4-yl)-8,9-dihydro-7H-6-oxa-2,9a-diazabenzo[cd]azulen-4-yl)amino)acetamide]: the Ki came out at 815 nM.
`NC(=O)[C@@H](Nc1cc2c3c(c1)nc(-c1cn[nH]c1)n3CCCO2)C1CC1` [Example 212, (S)-2-((1-(1H-Pyrazol-4-yl)-8,9-dihydro-7H-6-oxa-2,9a-diazabenzo[cd]azulen-4-yl)amino)-2-cyclopropylacetamide]: the Ki was found to be 148 nM.
Consider `COc1ccc(-n2nc3cc(N[C@H](C(N)=O)C4CC4)cc4c3c2CCCO4)cn1` [Example 213, (S)-2-Cyclopropyl-2-((1-(6-methoxypyridin-3-yl)-1,7,8,9-tetrahydrooxepino[4,3,2-cd]indazol-4-yl)amino)acetamide], for which the Ki came out at 23.8 nM.
For `NC(=O)[C@@H](Nc1cc2c3c(c1)nc(-c1ccc4nc(N)sc4c1)n3CCCCO2)C1CC1` [Example 214, (S)-2-((1-(2-Aminobenzo[d]thiazol-6-yl)-7,8,9,10-tetrahydro-6-oxa-2,10a-diazacycloocta[cd]inden-4-yl)amino)-2-cyclopropylacetamide], the Ki was under 0.02 nM.
As for `NC(=O)[C@@H](Nc1cc2c3c(c1)nc(-c1cc(F)c4nccnc4c1)n3CCCO2)C1CC1` [Example 215, (S)-2-Cyclopropyl-2-((1-(8-fluoroquinoxalin-6-yl)-8,9-dihydro-7H-6-oxa-2,9a-diazabenzo[cd]azulen-4-yl)amino)acetamide], the Ki amounted to 0.424 nM.
Turning to `CC[C@H](C(N)=O)n1cc(-c2cc3c4c(c2)nc(-c2ccc5oc(N)nc5c2)n4CCCO3)cn1` [Example 216, (R)-2-(4-(1-(2-Aminobenzo[d]oxazol-5-yl)-8,9-dihydro-7H-6-oxa-2,9a-diazabenzo[cd]azulen-4-yl)-1H-pyrazol-1-yl)butanamide], the Ki stood at 0.214 nM.
Take `CC[C@@H](C(N)=O)n1cc(-c2cc3c4c(c2)nc(-c2ccc5oc(N)nc5c2)n4CCCO3)cn1` [Example 217, (S)-2-(4-(1-(2-Aminobenzo[d]oxazol-5-yl)-8,9-dihydro-7H-6-oxa-2,9a-diazabenzo[cd]azulen-4-yl)-1H-pyrazol-1-yl)butanamide]: the Ki is 0.298 nM.
`C[C@H](C(N)=O)n1cc(-c2cc3c4c(c2)nc(-c2ccc5oc(N)nc5c2)n4CCCO3)cn1` [Example 218, (R)-2-(4-(1-(2-Aminobenzo[d]oxazol-5-yl)-8,9-dihydro-7H-6-oxa-2,9a-diazabenzo[cd]azulen-4-yl)-1H-pyrazol-1-yl)propanamide]: the Ki turned out to be 0.143 nM.
For `C[C@@H](C(N)=O)n1cc(-c2cc3c4c(c2)nc(-c2ccc5oc(N)nc5c2)n4CCCO3)cn1` [Example 219, (S)-2-(4-(1-(2-Aminobenzo[d]oxazol-5-yl)-8,9-dihydro-7H-6-oxa-2,9a-diazabenzo[cd]azulen-4-yl)-1H-pyrazol-1-yl)propanamide], the Ki worked out at 0.242 nM.
The result for `NC(=O)[C@@H]1CCCN1c1cc2c3c(c1)nc(-c1ccc4c(c1)N1CCC(=O)N=C1O4)n3CCCO2` [Example 220, (S)-1-(1-(2-Oxo-3,4-dihydro-2H-benzo[4,5]oxazolo[3,2-a]pyrimidin-7-yl)-8,9-dihydro-7H-6-oxa-2,9a-diazabenzo[cd]azulen-4-yl)pyrrolidine-2-carboxamide] reads 2.92 nM; that for `NC(=O)[C@@H]1CCCN1c1cc2c3c(c1)nc(-c1ccc(-c4nc[nH]n4)cc1)n3CCCO2` [Example 221, (S)-1-(1-(4-(1H-1,2,4-Triazol-3-yl)phenyl)-8,9-dihydro-7H-6-oxa-2,9a-diazabenzo[cd]azulen-4-yl)pyrrolidine-2-carboxamide], 0.237 nM.
`NC(=O)[C@@H]1CCCN1c1cc2c3c(c1)nc(-c1ccc(-c4nc[nH]n4)c(Cl)c1)n3CCCO2` [Example 222, (S)-1-(1-(3-Chloro-4-(1H-1,2,4-triazol-3-yl)phenyl)-8,9-dihydro-7H-6-oxa-2,9a-diazabenzo[cd]azulen-4-yl)pyrrolidine-2-carb oxamide]: the Ki turned out to be 0.261 nM.
The result for `NC(=O)[C@@H]1CCCN1c1cc2c3c(c1)nc(-c1ccc(-c4cn[nH]c4)nc1)n3CCCO2` [Example 223, (S)-1-(1-(6-(1H-Pyrazol-4-yl)pyridin-3-yl)-8,9-dihydro-7H-6-oxa-2,9a-diazabenzo[cd]azulen-4-yl)pyrrolidine-2-carboxamide] reads 74.6 nM; that for `CCc1cc(-c2nc3cc(N4CCC[C@H]4C(N)=O)cc4c3n2CCCO4)cc2nc(N)oc12` [Example 224, (S)-1-(1-(2-Amino-7-ethylbenzo[d]oxazol-5-yl)-8,9-dihydro-7H-6-oxa-2,9a-diazabenzo[cd]azulen-4-yl)pyrrolidine-2-carb oxamide], 1.62 nM.
As to `CCc1cc(-c2nc3cc(N[C@H](C(N)=O)C4CC4)cc4c3n2CCCO4)cc2nc(N)oc12` [Example 225, (S)-2-((1-(2-Amino-7-ethylbenzo[d]oxazol-5-yl)-8,9-dihydro-7H-6-oxa-2,9a-diazabenzo[cd]azulen-4-yl)amino)-2-cyclopropylacetamide], the Ki was found to be 0.431 nM.
Regarding `NC(=O)[C@@H]1CCCN1c1cc2c3c(c1)nc(-c1ccc(-c4nc[nH]n4)cn1)n3CCCO2` [Example 226, (S)-1-(1-(5-(1H-1,2,4-Triazol-3-yl)pyridin-2-yl)-8,9-dihydro-7H-6-oxa-2,9a-diazabenzo[cd]azulen-4-yl)pyrrolidine-2-carb oxamide], the Ki came out at 0.393 nM.
For `NC(=O)[C@@H]1CCCN1c1cc2c3c(c1)nc(-c1ccc(-c4ncsn4)cc1)n3CCCO2` [Example 227, (S)-1-(1-(4-(1,2,4-Thiadiazol-3-yl)phenyl)-8,9-dihydro-7H-6-oxa-2,9a-diazabenzo[cd]azulen-4-yl)pyrrolidine-2-carboxamide], the Ki was 8.21 nM.
As for `NC(=O)[C@@H](Nc1cc2c3c(c1)nc(-c1ccn4nccc4n1)n3CCCO2)C1CC1` [Example 228, (S)-2-Cyclopropyl-2-((1-(pyrazolo[1,5-a]pyrimidin-5-yl)-8,9-dihydro-7H-6-oxa-2,9a-diazabenzo[cd]azulen-4-yl)amino)acetamide], the Ki was determined as 2.66 nM.
The result for `NC(=O)[C@@H]1CCCN1c1cc2c3c(c1)nc(-c1ccc(-c4cc[nH]n4)cc1)n3CCCO2` [Example 229, (S)-1-(1-(4-(1H-Pyrazol-3-yl)phenyl)-8,9-dihydro-7H-6-oxa-2,9a-diazabenzo[cd]azulen-4-yl)pyrrolidine-2-carboxamide] reads 6.88 nM.
Turning to `NC(=O)[C@@H]1CCCN1c1cc2c3c(c1)nc(-c1ccc(N4CCNC4=O)cc1)n3CCCO2` [Example 234, (S)-1-(1-(4-(2-Oxoimidazolidin-1-yl)phenyl)-8,9-dihydro-7H-6-oxa-2,9a-diazabenzo[cd]azulen-4-yl)pyrrolidine-2-carboxamide], the Ki is 83.7 nM.
Consider `NC(=O)[C@@H](Nc1cc2c3c(c1)nc(-c1cc(C(F)(F)F)c4oc(N)nc4c1)n3CCCO2)C1CC1` [Example 235, (S)-2-((1-(2-Amino-7-(trifluoromethyl)benzo[d]oxazol-5-yl)-8,9-dihydro-7H-6-oxa-2,9a-diazabenzo[cd]azulen-4-yl)amino)-2-cyclopropylacetamide], for which the Ki amounted to 0.209 nM.
Regarding `COc1ccc(CNC(=O)[C@@H]2CCCN2c2cc3c4c(c2)nc(-c2ccc5oc(N)nc5c2)n4CCCO3)cc1` [Example 236, (S)-1-(1-(2-Aminobenzo[d]oxazol-5-yl)-8,9-dihydro-7H-6-oxa-2,9a-diazabenzo[cd]azulen-4-yl)-N-(4-methoxybenzyl)pyrrolidine-2-carb oxamide], the Ki came out at 21 nM.
Take `NC(=O)[C@@H]1CCCN1c1cc2c3c(c1)nc(-c1ccc4c(=O)[nH]oc4c1)n3CCCO2` [Example 237, (S)-1-(1-(3-Oxo-2,3-dihydrobenzo[d]isoxazol-6-yl)-8,9-dihydro-7H-6-oxa-2,9a-diazabenzo[cd]azulen-4-yl)pyrrolidine-2-carb oxamide]: the Ki was found to be 137 nM.
The result for `C[C@@H]1Cn2c(-c3ccc4oc(N)nc4c3)nc3cc(N[C@H](C(N)=O)C4CC4)cc(c32)O1` [Example 238, (S)-2-(((R)-2-(2-Aminobenzo[d]oxazol-5-yl)-4-methyl-3,4-dihydro-5-oxa-1,2a-diazaacenaphthylen-7-yl)amino)-2-cyclopropylacetamide] reads 0.045 nM; that for `C[C@H](Oc1cc2c3c(nc(-c4ccc5oc(N)nc5c4)n3CCCO2)c1F)C(N)=O` [Example 240, (S)-2-((1-(2-Aminobenzo[d]oxazol-5-yl)-3-fluoro-8,9-dihydro-7H-6-oxa-2,9a-diazabenzo[cd]azulen-4-yl)oxy)propanamide], 1.61 nM.
Regarding `C[C@H](Oc1cc2c3c(c1)nc(-c1ccc4oc(N)nc4c1F)n3CCCCO2)C(N)=O` [Example 241, (S)-2-((1-(2-Amino-4-fluorobenzo[d]oxazol-5-yl)-7,8,9,10-tetrahydro-6-oxa-2,10a-diazacycloocta[cd]inden-4-yl)oxy)propanamide], the Ki is under 0.02 nM.
On to `C[C@H](Oc1cc2c3c(c1)nc(-c1cc(F)c4nc(N)sc4c1)n3CCCCO2)C(N)=O` [Example 242, (S)-2-((1-(2-Amino-4-fluorobenzo[d]thiazol-6-yl)-7,8,9,10-tetrahydro-6-oxa-2,10a-diazacycloocta[cd]inden-4-yl)oxy)propanamide], for which the Ki is under 0.02 nM.

For the origin of these results see patent publication US10065970B2 (Genentech, Inc., priority 2015, dated 2018).
